The values that follow come from PMC12683216, “Using High‐Throughput Screening to Identify Crosslinking Peptides That Control Cell‐Mediated Matrix Degradation” (Advanced Healthcare Materials, 2025).

Where a SMILES comes first, the peptide text is derived from it. [ ]: non-standard residue; d: D form. βAla = NCCC(=O)O

Common to all, as to type: in vitro ADME, human
What all share (conditions): human, 24 h, LC-MS

Data set [1] in a line: Soluble peptide degradation, Media condition (cell-conditioned media, LC-MS). The procedure: (§1) Most in vitro protease activity assays incubate the peptides or proteins of interest with a single protease in a buffered solution. However, the kinetics of protease activity in tissues are complex and highly regulated, and both the activity^[ [37] ^] and substrate specificity^[ [38] ^] of proteases can be modulated through association with other proteins.^[ [39] ^] Most MMP‐substrate peptides are also cleaved by multiple proteases,^[ [5] ^] and within the context of biomaterials, the most important factor is typically how the combined activity of all proteases, rather than the activity of any specific protease, modifies the local microenvironment versus the activity due to any individual enzyme. We synthesized peptides identified in the TAILS proteomic screen that were present on proteins that are known to be secreted or found on the cell membrane, pooled them, and added them either to cell culture media on top of cells, the “Cells” condition, or conditioned media lacking cells, the “Media” condition (Figure 2A). The fraction of peptides remaining after 24 h in each condition was then quantified using LC‐MS. Soluble proteases should be present in both conditions, however, membrane‐type proteases should primarily be found in the samples containing cells and not the conditioned media samples. A key benefit of this approach is that it surveys the total functional proteolytic activity, including the effects of inhibitors and co‐factors, and quantifies the degradation rate of soluble peptides by the complete secretome of different cell types.
(§2) hUVECs (75000 per well) or hMSCs (36000 per well) were seeded into a 48 well plate, and 500 µL media was added to the wells. […] The peptide libraries were dissolved at a stock solution of 10 mM total peptide content. For libraries containing 38 peptides, 95 µL of the stock solution was added to each well; for libraries with 19 peptides, 47.5 µL was added to each well, and media was taken at 0 and 24 h. Add 4 µL of acetic acid to all collected media in the LC‐MS plates and store them in a −80 °C freezer to prevent further proteolytic degradation. From each sample, 10 µL of crude solution was introduced by the LC‐MS through a Thermo Scientific Vanquish LC System (Thermo Fisher Scientific), which outputted to a Thermo Scientific LTQ XL Linear Ion Trap Mass Spectrometer (Thermo Fisher Scientific). The sampled mixture was trapped on a column (ProntoSIL C18 AQ, 120 Å, 3 µm, 2.0 x 50 mm HPLC Column, PN 0502F184PS030, MAC‐MOD Analytical Inc.). The samples were loaded onto the column with a solvent containing acetonitrile/water, 5:95 (v/v) containing 1% acetic acid at a flow rate of 300 µL min^−1 and held for 1 min. The sample was then eluted from the column with a linear gradient of 5–40% Solvent B (1% acetic acid in acetonitrile) at the same flow rate for 5 min. This was followed by a 1 min ramp up to 100% Solvent B, where it was re‐equilibrated with Solvent A (1% acetic acid) to 5% solvent B over the course of 1 min and held there for 2 min. The column temperature was kept at a constant 29 °C, and the mass spectrometer was operated in positive ion mode. Using a Heated ESI, the Source Voltage was set to 4.1 kV, and the capillary temperature was 350 °C. For non‐library degradation studies, 2.5 µL of 10 mM peptide stock solution for each peptide was added.
(§3) To assess the activity of the conditioned media, the media were divided into two equal portions. One portion was used for a standard degradation study, while the other was cultured for an additional 24 h before the PanMMP and KLVADLMASAE were added. After 24 h of incubation, the media were collected for further analysis. To assess the impact of recombinant MMP‐14 on PanMMP and KLVADLMASAE, recombinant MMP‐14 (antibodies.com) was dissolved in the media at a concentration of 0.5 nM. The remaining steps followed the standard degradation study protocol. […]

Assay in data set [2]: as above
The procedure: as §1, §2, §3
The source holds these as a separate data set.

Data set [3] can be described thus: Soluble peptide degradation, Cells condition (LC-MS). As to the method:
as §1, §2
In the MMP‐14 inhibitor study, the MMP‐14 inhibitor NSC 405 020 (Cayman Chemical Company) was dissolved in DMSO to make a 10 mM stock solution and stored in −20 °C freezer. 0.5 µL MMP‐14 inhibitor stock solution was added to each well to achieve a 10 µM final concentration.
For all degradation studies using soluble peptides, a non‐proteolytically degradable NH2‐βFβAβAβAβAβAβA‐amide (βFβA6) peptide, where βF is β‐phenylalanine and βA is β‐alanine, was added at a 50 µM concentration and used as an internal standard. Peptide degradation ratios were measured by LC‐MS and analyzed by Xcalibur. […]

Where [4] appears, read: Figure 2B heatmap, pooled TAILS-derived soluble peptides in 24 h hMSC-conditioned media without cells, ratio to βFβA6 internal standard, 24 h / 0 h, N = 5, read-out: Fraction of peptide remaining at 24 hours: hMSC Media.
Where [5] appears, read: Figure 2B heatmap, pooled TAILS-derived soluble peptides in 24 h hUVEC-conditioned media without cells, ratio to βFβA6 internal standard, 24 h / 0 h, N = 5, read-out: Fraction of peptide remaining at 24 hours: hUVEC Media.
Where [6] appears, read: hMSCs in culture with fresh media (Cells condition), Figure 2B heatmap, pooled TAILS-derived soluble peptides (Ac-βAla N-terminus, βAla-amide C-terminus) in media on hMSCs (36000 per well, 48 well plate, 500 µL), ratio to βFβA6 internal standard, 24 h / 0 h, N = 5, read-out: Fraction of peptide remaining at 24 hours: hMSC Cells.
Setting [7] is: hUVECs in culture with fresh media (Cells condition), Figure 2B heatmap, pooled TAILS-derived soluble peptides in media on hUVECs (75000 per well, 48 well plate, 500 µL), ratio to βFβA6 internal standard, 24 h / 0 h, N = 5, read-out: Fraction of peptide remaining at 24 hours: hUVEC Cells.
The mark [8] stands for this setting: hMSC-conditioned media without cells (Media condition), Figure 3B heatmap, split-and-pool libraries KLVADX1X2ASAE in hMSC-conditioned media without cells, ratio to βFβA6, N = 2, read-out: Fraction of peptide remaining after 24 hours: hMSC Media.
The mark [9] stands for this setting: hUVEC-conditioned media without cells (Media condition), Figure 3B heatmap, split-and-pool libraries KLVADX1X2ASAE in hUVEC-conditioned media without cells, ratio to βFβA6, N = 2, read-out: Fraction of peptide remaining after 24 hours: hUVEC Media.
[10] abbreviates: hMSCs in culture with fresh media (Cells condition), Figure 3B heatmap, split-and-pool libraries KLVADX1X2ASAE (19 or 38 peptides per library) in media on hMSCs, ratio to βFβA6, N = 2, read-out: Fraction of peptide remaining after 24 hours: hMSC Cells.
The mark [11] stands for this setting: hUVECs in culture with fresh media (Cells condition), Figure 3B heatmap, split-and-pool libraries KLVADX1X2ASAE in media on hUVECs, ratio to βFβA6, N = 2, read-out: Fraction of peptide remaining after 24 hours: hUVEC Cells.

As to `CC[C@H](C)[C@H](NC(=O)CCNC(C)=O)C(=O)N[C@H](C(=O)N[C@@H](CCCCN)C(=O)N[C@H](C(=O)N[C@@H](CC(=O)O)C(=O)N[C@H](C(=O)N1CCC[C@H]1C(=O)N[C@@H](CC(=O)O)C(=O)N[C@@H](CCSC)C(=O)N[C@H](C(=O)NCCC(N)=O)C(C)C)[C@@H](C)CC)[C@@H](C)O)C(C)C` [IVKTDIPDMV] (Ac-[βAla]IVKTDIPDMV[βAla]-NH2), the fraction remaining at 24 h in data set [1] (setting [4]) is 101%; in data set [2] (setting [5]), 102%; in data set [3] (setting [6]) it was 96%; in data set [3] (setting [7]) it was 106%.

With `CC(=O)NCCC(=O)N1CCC[C@H]1C(=O)N1CCC[C@H]1C(=O)N[C@@H](CO)C(=O)N[C@@H](CCCNC(=N)N)C(=O)N[C@@H](Cc1c[nH]cn1)C(=O)N[C@@H](CC(=O)O)C(=O)N[C@H](C(=O)NCC(=O)N[C@H](C(=O)N1CCC[C@H]1C(=O)NCCC(N)=O)[C@@H](C)O)[C@@H](C)O` [PPSRHDTGTP] (Ac-[βAla]PPSRHDTGTP[βAla]-NH2), the amount remaining at 24 h in data set [1] (setting [4]) was 87%; in data set [2] (setting [5]), 104%; in data set [3] (setting [6]), 100%; in data set [3] (setting [7]), 103%.

Consider `CC[C@H](C)[C@H](NC(=O)[C@H](Cc1c[nH]cn1)NC(=O)[C@H](CCC(=O)O)NC(=O)[C@@H]1CCCN1C(=O)[C@H](Cc1ccccc1)NC(=O)[C@H](CC(N)=O)NC(=O)CCNC(C)=O)C(=O)N[C@@H](Cc1ccccc1)C(=O)N1CCC[C@H]1C(=O)N[C@@H](C)C(=O)N[C@@H](CC(C)C)C(=O)N[C@@H](C)C(=O)NCCC(N)=O` [NFPEHIFPALA] (Ac-[βAla]NFPEHIFPALA[βAla]-NH2), for which the share remaining at 24 h in data set [1] (setting [4]) was determined as 92%; in data set [2] (setting [5]), 99%; in data set [3] (setting [6]), 73%.

Take `CC(=O)NCCC(=O)N[C@@H](CC(C)C)C(=O)N[C@@H](C)C(=O)N[C@@H](CC(C)C)C(=O)N[C@@H](CCC(=O)O)C(=O)N[C@@H](C)C(=O)N[C@@H](CCCNC(=N)N)C(=O)N[C@H](C(=O)N[C@H](C(=O)N[C@@H](CC(=O)O)C(=O)N[C@@H](CC(C)C)C(=O)NCCC(N)=O)[C@@H](C)O)[C@@H](C)O` [LALEARTTDL] (Ac-[βAla]LALEARTTDL[βAla]-NH2): the share remaining at 24 h amounted to 86% in data set [1] (setting [4]), 104% in data set [2] (setting [5]), 68% in data set [3] (setting [6]) and 94% in data set [3] (setting [7]).

`CC(=O)NCCC(=O)N[C@@H](CCCCN)C(=O)N[C@@H](CC(C)C)C(=O)N[C@H](C(=O)N[C@@H](C)C(=O)N[C@@H](CC(=O)O)C(=O)N[C@@H](CO)C(=O)N[C@@H](Cc1c[nH]c2ccccc12)C(=O)N[C@@H](C)C(=O)N[C@@H](CO)C(=O)N[C@@H](C)C(=O)N[C@@H](CCC(=O)O)C(=O)NCCC(N)=O)C(C)C` [Ser-Trp] (Ac-[βAla]KLVADSWASAE[βAla]-NH2): the share remaining at 24 h in data set [1] (setting [8]) is 72%; in data set [2] (setting [9]), 95%; in data set [3] (setting [10]), 40%; in data set [3] (setting [11]), 86%.

For `CC(=O)NCCC(=O)N[C@@H](CCCCN)C(=O)N[C@@H](CC(C)C)C(=O)N[C@H](C(=O)N[C@@H](C)C(=O)N[C@@H](CC(=O)O)C(=O)N1CCC[C@H]1C(=O)N[C@@H](Cc1ccccc1)C(=O)N[C@@H](C)C(=O)N[C@@H](CO)C(=O)N[C@@H](C)C(=O)N[C@@H](CCC(=O)O)C(=O)NCCC(N)=O)C(C)C` [Pro-Phe] (Ac-[βAla]KLVADPFASAE[βAla]-NH2), the fraction remaining at 24 h in data set [1] (setting [8]) is 73%; in data set [2] (setting [9]) it was 97%; in data set [3] (setting [10]) it was 41%; in data set [3] (setting [11]), 84%.

As for `CC(=O)NCCC(=O)N[C@@H](CCC(=O)O)C(=O)N[C@@H](CO)C(=O)N[C@@H](CO)C(=O)N[C@@H](Cc1c[nH]cn1)C(=O)N[C@@H](CC(N)=O)C(=O)N[C@H](C(=O)N[C@@H](Cc1ccc(O)cc1)C(=O)N[C@@H](CC(C)C)C(=O)N[C@H](C(=O)N[C@@H](CCC(N)=O)C(=O)NCCC(N)=O)[C@@H](C)O)[C@@H](C)O` [ESSHNTYLTQ] (Ac-[βAla]ESSHNTYLTQ[βAla]-NH2), the amount remaining at 24 h stood at 98% in data set [1] (setting [4]), 102% in data set [2] (setting [5]), 88% in data set [3] (setting [6]) and 100% in data set [3] (setting [7]).

For `CSCC[C@H](NC(=O)[C@H](CC(=O)O)NC(=O)[C@H](C)NC(=O)[C@@H](NC(=O)[C@H](CC(C)C)NC(=O)[C@H](CCCCN)NC(=O)CCNC(C)=O)C(C)C)C(=O)N[C@@H](Cc1c[nH]cn1)C(=O)N[C@@H](C)C(=O)N[C@@H](CO)C(=O)N[C@@H](C)C(=O)N[C@@H](CCC(=O)O)C(=O)NCCC(N)=O` [Met-His] (Ac-[βAla]KLVADMHASAE[βAla]-NH2), the share remaining at 24 h in data set [1] (setting [8]) was found to be 74%; in data set [2] (setting [9]) it was 100%; in data set [3] (setting [10]) it was 46%; in data set [3] (setting [11]), 90%.

For the compound `CC(=O)NCCC(=O)N[C@@H](CCCCN)C(=O)N[C@@H](CC(C)C)C(=O)N[C@H](C(=O)N[C@@H](C)C(=O)N[C@@H](CC(=O)O)C(=O)N[C@@H](CC(C)C)C(=O)N[C@@H](Cc1c[nH]c2ccccc12)C(=O)N[C@@H](C)C(=O)N[C@@H](CO)C(=O)N[C@@H](C)C(=O)N[C@@H](CCC(=O)O)C(=O)NCCC(N)=O)C(C)C` [Leu-Trp] (Ac-[βAla]KLVADLWASAE[βAla]-NH2), the share remaining at 24 h in data set [1] (setting [8]) is 62%; in data set [2] (setting [9]), 98%; in data set [3] (setting [10]), 37%; in data set [3] (setting [11]) it was 91%.
